Patent US20150025118A1, “ACTIVE COMPOUND COMPOSITIONS FOR VECTOR CONTROL OF INSECTICIDE-RESISTANT PESTS” (priority 2012, published 2015)

Columns and labels:
[1] = tested on: Anopheles gambiae (target-site-resistant and metabolic-resistant strain: RSPH); experiment: Target-site-resistant and metabolic-resistant Anopheles test: treated glazed tile, knock-down; type: in vivo
Description: The exposition time is 30 minutes.
(§1) 0.25 hours, 0.5 hours, 1 hour, 2 hour, 3 hour, 4 hour and 24 hours after contact to the treated surface, the knock-down proportion of the test animals in % is determined. Here, 100% means that all mosquitoes have been killed; 0% means that none of the mosquitoes has been killed.

[2] = tested on: mosquitoes; settings: alone, on wood; stated as known; cited from earlier work
[3] = tested on: Aedes aegypti; experiment: Aedes test: contact on treated glazed tile, knock-down; type: in vivo
Description: To produce a suitable preparation of active compound combination the active compounds bendiocarb and clothianidin were dissolved in acetone (for the control group only one active compound was dissolved in acetone). The active compound combination preparation (and the active compound preparations) were pipetted onto a glazed tile and, after drying, adult mosquitoes of the species Aedes aegypti are placed onto the treated tile. The exposition time is 30 minutes.
as §1

[4] = Clothianidin 5 mg/m^2 alone, 0.25 h after contact
[5] = Clothianidin 5 mg/m^2 alone, 0.5 h after contact
[6] = Clothianidin 5 mg/m^2 alone, 1 h after contact
[7] = Clothianidin 5 mg/m^2 alone, 2 h after contact
[8] = Clothianidin 5 mg/m^2 alone, 3 h after contact
[9] = Clothianidin 5 mg/m^2 alone, 4 h after contact
[10] = Clothianidin 5 mg/m^2 alone, 24 h after contact
[11] = Clothianidin 20 mg/m^2 alone, 0.25 h after contact
[12] = Clothianidin 20 mg/m^2 alone, 0.5 h after contact
[13] = Clothianidin 20 mg/m^2 alone, 1 h after contact
[14] = Clothianidin 20 mg/m^2 alone, 2 h after contact
[15] = Clothianidin 20 mg/m^2 alone, 3 h after contact
[16] = Clothianidin 20 mg/m^2 alone, 4 h after contact
[17] = Clothianidin 20 mg/m^2 alone, 24 h after contact

CN/C(=N\[N+](=O)[O-])NCc1cnc(Cl)s1 [Clothianidin, clothianidin]
Effect % (knock-down) [1, 4]: 15% | Effect % (knock-down) [1, 5]: 25% | Effect % (knock-down) [1, 6]: 35% | Effect % (knock-down) [1, 7]: 35% | Effect % (knock-down) [1, 8]: 45% | Effect % (knock-down) [1, 9]: 50% | Effect % (knock-down) [1, 10]: 65% | Effect % (knock-down) [1, 11]: 30% | Effect % (knock-down) [1, 12]: 35% | Effect % (knock-down) [1, 13]: 40% | Effect % (knock-down) [1, 14]: 45% | Effect % (knock-down) [1, 15]: 50% | Effect % (knock-down) [1, 16]: 55% | Effect % (knock-down) [1, 17]: 65% | Effect % (knock-down) ([1]; Clothianidin 50 mg/m^2 alone, 0.25 h after contact): 10% | Effect % (knock-down) ([1]; Clothianidin 50 mg/m^2 alone, 0.5 h after contact): 35% | Effect % (knock-down) ([1]; Clothianidin 50 mg/m^2 alone, 1 h after contact): 65% | Effect % (knock-down) ([1]; Clothianidin 50 mg/m^2 alone, 2 h after contact): 65% | Effect % (knock-down) ([1]; Clothianidin 50 mg/m^2 alone, 3 h after contact): 60% | Effect % (knock-down) ([1]; Clothianidin 50 mg/m^2 alone, 4 h after contact): 65% | Effect % (knock-down) ([1]; Clothianidin 50 mg/m^2 alone, 24 h after contact): 95% | efficiency on wood [2]: not efficient | Effect % (knock-down) [3, 4]: 5% | Effect % (knock-down) [3, 5]: 5% | Effect % (knock-down) [3, 6]: 5% | Effect % (knock-down) [3, 7]: 5% | Effect % (knock-down) [3, 8]: 5% | Effect % (knock-down) [3, 9]: 10% | Effect % (knock-down) [3, 10]: 15% | Effect % (knock-down) [3, 11]: 0% | Effect % (knock-down) [3, 12]: 15% | Effect % (knock-down) [3, 13]: 20% | Effect % (knock-down) [3, 14]: 15% | Effect % (knock-down) [3, 15]: 10% | Effect % (knock-down) [3, 16]: 10% | Effect % (knock-down) [3, 17]: 30%
